Data reported in ChEMBL document CHEMBL1142283, “Thiosulfinates from Allium tuberosum L. induce apoptosis via caspase-dependent and -independent pathways in PC-3 human prostate cancer cells” (Bioorg Med Chem Lett, 2008).
Active and inactive are the calls of the source. The calls are words filed in the database; no cut-off is given here.

What was measured:
[1] = system: PC-3; test: Induction of apoptosis in human PC3 cells assessed as DNA fragmentation at 5 ug/mL after 24 hrs by ELISA relative to control; assay type: functional
[2] = Cytotoxicity against human RC58T/h/SA#4 cells after 24 hrs by SRB assay; assay type: functional, cell-based
[3] = system: LNCaP; test: Cytotoxicity against human LNCap cells after 24 hrs by SRB assay; assay type: functional, cell-based
[4] = system: PC-3; test: Cytotoxicity against human PC3 cells after 24 hrs by SRB assay; assay type: functional, cell-based; conditions: PC-3, 24 h
[5] = system: DU-145; test: Cytotoxicity against human DU145 cells after 24 hrs by SRB assay; assay type: functional, cell-based; conditions: DU-145, 24 h
[6] = system: PC-3; test: Growth inhibition of human PC3 cells by SRB assay; assay type: functional, cell-based; conditions: TDE = time-dependent effect
[7] = system: PC-3; test: Growth inhibition of human PC3 cells assessed as decrease in cell numbers by trypan blue assay; assay type: functional, cell-based
[8] = system: PC-3; test: Induction of cell death in human PC3 cells by trypan blue assay; assay type: functional, cell-based
[9] = system: PC-3; test: Induction of apoptosis in human PC3 cells after 24 hrs by Hoechst staining; assay type: functional, cell-based
[10] = system: PC-3; test: Induction of apoptosis in human PC3 cells assessed as DNA fragmentation at 10 ug/mL after 24 hrs by ELISA relative to control; assay type: functional
[11] = system: PC-3; test: Induction of apoptosis in human PC3 cells assessed as DNA fragmentation at 20 ug/mL after 24 hrs by ELISA relative to control; assay type: functional
[12] = system: PC-3; test: Cell cycle arrest in human PC3 cells assessed as accumulation at subG1 phase after 24 hrs by flow cytometry; assay type: functional, cell-based
[13] = system: PC-3; test: Induction of PARP cleavage in human PC3 cells after 24 hrs by Western blot; assay type: functional, cell-based
[14] = system: PC-3; test: Induction of apoptosis in human PC3 cells assessed as caspase 8 activity at 10 ug/mL relative to control; assay type: functional
[15] = system: PC-3; test: Induction of apoptosis in human PC3 cells assessed as caspase 9 activity at 10 ug/mL relative to control; assay type: functional
[16] = system: PC-3; test: Induction of apoptosis in human PC3 cells assessed as caspase 3 activity at 10 ug/mL relative to control; assay type: functional
[17] = system: PC-3; test: Reversal of induction of apoptosis in human PC3 cells in presence of caspase inhibitor Z-VAD-fmk; assay type: functional, cell-based
[18] = system: PC-3; test: Induction of cell death in human PC3 cells in presence of caspase inhibitor Z-VAD-fmk; assay type: functional, cell-based
[19] = system: PC-3; test: Increase in Bax protein expression in human PC3 cells by Western blot; assay type: functional, cell-based
[20] = system: PC-3; test: Decrease in Bcl2 protein expression in human PC3 cells by Western blot; assay type: functional, cell-based
[21] = system: PC-3; test: Induction of Bid protein cleavage in human PC3 cells by Western blot; assay type: functional, cell-based
[22] = system: PC-3; test: Induction of AIF protein translocation into nucleus in human PC3 cells after 24 hrs by immunostaining; assay type: functional, cell-based
[23] = system: PC-3; test: Induction of apoptosis in human PC3 cells assessed as caspase 3 activity at 5 ug/mL; assay type: functional, cell-based
[24] = system: PC-3; test: Induction of apoptosis in human PC3 cells assessed as caspase 3 activity at 10 ug/mL; assay type: functional, cell-based
[25] = system: PC-3; test: Induction of apoptosis in human PC3 cells assessed as caspase 3 activity at 20 ug/mL; assay type: functional, cell-based
[26] = system: PC-3; test: Increase in AIF protein levels in human PC3 cells after 24 hrs by Western blot; assay type: functional, cell-based

For `CS[S+](C)[O-]` (configuration not stated), the Fold change [1] was 1.3, the IC50 [2] was 96.1 µM and the IC50 [3] was 102 µM. For the same molecule, the IC50 [4] was 166 µM, the IC50 [5] was 184 µM and the Activity [6] was “tde”. The Activity [7] was “Dose-dependent effect”, the Activity [8] was “Dose-dependent effect” and the Activity [9] was “Active”. The Fold change [10] was 1.7, the Fold change [11] was 1.8 and the Activity [12] was “Dose-dependent effect”. The Activity [13] was “Active”, the Fold change [14] was 1.9 and the Fold change [15] was 2.1. The Fold change [16] was 1.7, the Activity [17] was “Active” and the Activity [18] was “Active”. For the same molecule, the Activity [19] was “Dose-dependent effect”, the Activity [20] was “Dose-dependent effect” and the Activity [21] was “Active”. The Activity [22] was “Active”, the Activity [23] was “Active” and the Activity [24] was “Active”. The Activity [25] was “Active” and the Activity [26] was “Active”.

Molecule `C=CC[S+]([O-])SC` (configuration not stated) has a Fold change [1] of 1.3, an IC50 [2] of 25.3 µM and an IC50 [3] of 29.7 µM. For the same molecule, the IC50 [4] was 62.9 µM, the IC50 [5] was 85.8 µM and the Activity [6] was “tde”. For the same molecule, the Activity [7] was “Dose-dependent effect”, the Activity [8] was “Dose-dependent effect” and the Activity [9] was “Active”. The Fold change [10] was 1.7, the Fold change [11] was 1.8 and the Activity [12] was “Dose-dependent effect”. For the same molecule, the Activity [13] was “Active”, the Fold change [14] was 1.9 and the Fold change [15] was 2.1. For the same molecule, the Fold change [16] was 1.7, the Activity [17] was “Active” and the Activity [18] was “Active”. The Activity [19] was “Dose-dependent effect”, the Activity [20] was “Dose-dependent effect” and the Activity [21] was “Active”. For the same molecule, the Activity [22] was “Active”, the Activity [23] was “Active” and the Activity [24] was “Active”. For the same molecule, the Activity [25] was “Active” and the Activity [26] was “Active”.
